The subject of assay [1] is NRF2 (nuclear factor erythroid 2-related factor 2). Nature of the assay: NRF2 +/-GSH activation assay (DiscoverX PathHunter NRF2 translocation kit, U2OS cells). The class given is cell-based. Conditions: for NRF2 activation +GSH Emax / NRF2 activation −GSH Emax: normalised to DMF high control. The protocol:
Measuring Compound Activation Effects on the Anti-Inflammatory Transcription Factor NRF2 in DiscoverX PathHunter NRF2 Translocation Kit
Potency and efficacy of compounds of formula (I) against the target of interest to activate NRF2 (nuclear factor erythroid 2-related factor 2) were determined using the PathHunter NRF2 translocation kit (DiscoverX). The NRF2 translocation assay was run using an engineered recombinant cell line, utilising enzyme fragment complementation to determine activation of the Keap1-NRF2 protein complex and subsequent translocation of NRF2 into the nucleus. Enzyme activity was quantified using a chemiluminescent substrate consumed following the formation of a functional enzyme upon PK-tagged NRF2 translocation into the nucleus.
The assay was run under both +/−GSH (glutathione) conditions to determine the sensitivity of the compounds' NRF2-activating abilities to attenuation by GSH.
Additionally, a defined concentration of DMF was used as the ‘High’ control to normalise test compound activation responses to.
U2OS PathHunter eXpress cells were thawed from frozen prior to plating. Following plating, U2OS cells were incubated for 24 hrs (37° C./5% CO2) in commercial kit provided cell medium.
Following 24 hrs of U2OS incubation, cells were directly treated with an appropriate final concentration of compound, for −GSH conditions or, for +GSH conditions, an intermediate plate containing 6× working concentrations of compound stocks was prepared in a 6 mM working concentration of GSH solution (solubilised in sterile PBS). Following a 30 minute compound-GSH pre-incubation (37° C./5% CO2) for +GSH treatment, plated U2OS cells were incubated with an appropriate final concentration of compound and GSH.
Following compound (+/−GSH) treatment, the U2OS plates were incubated for a further 6 hours (37° C./5% CO2) before detection reagent from the PathHunter NRF2 commercial kit was prepared and added to test plates according to the manufacturer's instructions. Subsequently, the luminescence signal detection was measured in a microplate reader (PHERAstar®, BMG Labtech).
Percentage activation was calculated by normalising the sample data to the high and low controls used within each plate (+/−DMF).

Assay [2] concerns IL-1β cytokine output from THP-1s. The assay can be described thus: THP-1 AlphaLISA IL-1β cytokine inhibition assay. Conditions: for IC50: LPS then nigericin; for IL-1β lowering, result in words: THP-1 IL-1β assay. The class given is cell-based. The protocol: Measuring Inhibitory Effects on IL-1β Cytokine Output from THP-1s
The cytokine inhibition profiles of compounds of formula (I) were determined in a differentiated THP-1 cell assay. All assays were performed in RPMI-1640 growth medium (Gibco), supplemented with 10% fetal bovine serum (FBS; Gibco), 1% penicillin-streptomycin and 1% sodium pyruvate unless specified otherwise. The IL-1β cytokine inhibition assay was run in a background of differentiated THP-1 cells as described below. All reagents described were from Sigma-Aldrich unless specified otherwise. Compounds were prepared as 10 mM DMSO stocks.
THP-1 cells were expanded as a suspension up to 80% confluence in appropriate growth medium. Cells were harvested, suspended, and treated with an appropriate concentration of phorbol 12-myristate 13-acetate (PMA) over a 72 hr period (37° C./5% CO2).
Following 72 hrs of THP-1 cell incubation, cellular medium was removed and replaced with fresh growth media containing 1% of FBS. Working concentrations of compounds were prepared separately in 10% FBS treated growth medium and pre-incubated with the cells for 30 minutes (37° C./5% CO2). Following the 30 minute compound pre-incubation, THP-1s were treated with an appropriate concentration of LPS and the cells were subsequently incubated for a 24 hr period (37° C./5% CO2). An appropriate final concentration of Nigericin was then dispensed into the THP-1 plates and incubated for 1 hour (37° C./5% CO2) before THP-1 supernatants were harvested and collected in separate polypropylene 96-well holding plates.
Reagents from an IL-1β and IL-6 commercial kit (Perkin Elmer) were prepared and run according to the manufacturer's instructions. Subsequently, fluorescence signal detection in a microplate reader was measured (EnVision® Multilabel Reader, Perkin Elmer).
Percentage inhibition was calculated per cytokine by normalising the sample data to the high and low controls used within each plate (+/− LPS respectively).
For orientation: In Alpha technology, singlet oxygen from a donor bead excites a nearby acceptor bead.

The mark [3] stands for this setting: +GSH, 30 minute compound-GSH pre-incubation, read-out: NRF2 activation +GSH EC50.
The mark [4] stands for this setting: −GSH, U2OS PathHunter cells, 6 hours compound treatment, read-out: NRF2 activation −GSH EC50.
[5] abbreviates: Homo sapiens, THP-1, differentiated THP-1 cells.

Counter-ions that a name gives are not always drawn. Like-named read-outs stand apart in the source and are kept apart here.

The EC50 is the concentration that produces a half-maximal response. For orientation: IC50 means the concentration at which inhibition is half-maximal. Low values mean higher potency, high ones lower potency. On to `C=C(Cc1nc(CCCCCCC(F)(F)CF)no1)C(=O)O` [Example 47, 2-((3-(7,7,8-trifluorooctyl)-1,2,4-oxadiazol-5-yl)methyl)acrylic acid], for which the EC50 in assay [1] (setting [3]) was 47.1 µM; in assay [1] (setting [4]), 41.4 µM. The “NRF2 activation +GSH Emax” value in assay [1] (+GSH) is reported as 86%. In addition, in assay [1] (−GSH), the “NRF2 activation −GSH Emax” value came to 131%. Moreover, in assay [2] (setting [5]), the IC50 is greater than 100 µM. Moreover, in assay [2], the “IL-1β lowering, result in words” value was “not effective”.

`C=C(Cc1nc(-c2ccc(I)cc2)no1)C(=O)O` [Example 119, 2-((3-(4-iodophenyl)-1,2,4-oxadiazol-5-yl)methyl)acrylic acid] displayed an IC50 in assay [2] (setting [5]) of 59.6 µM.

As to `C=C(Cc1nc(C(F)(F)c2ccc(OC)c(Cl)c2)no1)C(=O)O` [Example 150, 2-((3-((3-chloro-4-methoxyphenyl)difluoromethyl)-1,2,4-oxadiazol-5-yl)methyl)acrylic acid], in assay [2] (setting [5]), the midpoint of inhibition, the IC50, lay at 52.7 µM.

Consider `C=C(Cc1nc(-c2ccc(OC3CCC3)cc2)no1)C(=O)O` [Example 142, 2-((3-(4-cyclobutoxyphenyl)-1,2,4-oxadiazol-5-yl)methyl)acrylic acid], for which the values for the EC50 in assay [1] (setting [3]) and in assay [1] (setting [4]) were 26.9 µM and 23.3 µM, respectively. In addition, the “NRF2 activation +GSH Emax” value in assay [1] (+GSH) is 168%. The “NRF2 activation −GSH Emax” value in assay [1] (−GSH) was determined as 189%. The compound also yielded an IC50 in assay [2] (setting [5]) greater than 100 µM.

In the case of `C=C(Cc1noc(-c2ccc(OCCCC)cc2)n1)C(=O)O` [Example 96, 2-((5-(4-butoxyphenyl)-1,2,4-oxadiazol-3-yl)methyl)acrylic acid], the EC50 in assay [1] (setting [3]) stood at 12.4 µM; in assay [1] (setting [4]) it was 11.7 µM. The “NRF2 activation +GSH Emax” value in assay [1] (+GSH) is 115%. Also, in assay [1] (−GSH), the “NRF2 activation −GSH Emax” value is reported as 170%. For the same compound, in assay [2] (setting [5]), the concentration for half-maximal inhibition (IC50) was greater than 31.6 µM.

For `C=C(Cc1nc(-c2ccc(SC(F)(F)F)cc2)no1)C(=O)O` [Example 158, 2-((3-(4-((trifluoromethyl)thio)phenyl)-1,2,4-oxadiazol-5-yl)methyl)acrylic acid], the results for the EC50 in assay [1] (setting [3]) and in assay [1] (setting [4]) were 2.9 µM and 2.6 µM, respectively. The “NRF2 activation +GSH Emax” value in assay [1] (+GSH) was 196%. Also, in assay [1] (−GSH), the “NRF2 activation −GSH Emax” value turned out to be 189%. In addition, the IC50 in assay [2] (setting [5]) is greater than 31.6 µM.

Take `C=C(Cc1nc(CCCC)c(CCCC)o1)C(=O)O` [Example 123, 2-((4,5-dibutyloxazol-2-yl)methyl)acrylic acid]: the EC50 was determined as 62.4 µM in assay [1] (setting [3]) and 6.6 µM in assay [1] (setting [4]). Moreover, in assay [1] (+GSH), the “NRF2 activation +GSH Emax” value stood at 42%. Further, the “NRF2 activation −GSH Emax” value in assay [1] (−GSH) is 111%. This compound also displayed a half-inhibitory concentration (IC50) in assay [2] (setting [5]) greater than 100 µM.

In the case of `C=C(Cc1nc(Cc2ccc(OC)c(Cl)c2)no1)C(=O)O` [Example 163, 2-((3-(3-chloro-4-methoxybenzyl)-1,2,4-oxadiazol-5-yl)methyl)acrylic acid], the values for the EC50 in assay [1] (setting [3]) and in assay [1] (setting [4]) were greater than 100 µM and 61.4 µM, respectively. Also, the “NRF2 activation +GSH Emax” value in assay [1] (+GSH) is reported as −10%. Besides, in assay [1] (−GSH), the “NRF2 activation −GSH Emax” value came to 61%. This compound also showed an IC50 in assay [2] (setting [5]) greater than 100 µM.

On to `C=C(Cc1nc(-c2ccc(Br)cc2)no1)C(=O)O` [Example 118, 2-((3-(4-bromophenyl)-1,2,4-oxadiazol-5-yl)methyl)acrylic acid], for which the IC50 in assay [2] (setting [5]) came to 59.6 µM.

Take `C=C(Cc1nc(Oc2ccc(CCCC)cc2)no1)C(=O)O` [Example 126, 2-((3-(4-butylphenoxy)-1,2,4-oxadiazol-5-yl)methyl)acrylic acid]: the IC50 in assay [2] (setting [5]) was 32.1 µM.

For the compound `C=C(Cc1nc(C2CCCCCC2)no1)C(=O)O` [Example 65, 2-((3-cycloheptyl-1,2,4-oxadiazol-5-yl)methyl)acrylic acid], the EC50 in assay [1] (setting [3]) and in assay [1] (setting [4]) was greater than 100 µM each time. In addition, the “NRF2 activation +GSH Emax” value in assay [1] (+GSH) came out at 17%. For the same compound, the “NRF2 activation −GSH Emax” value in assay [1] (−GSH) turned out to be 50%. The compound also came in with an IC50 in assay [2] (setting [5]) greater than 100 µM. In addition, the “IL-1β lowering, result in words” value in assay [2] is “not effective”.

For `C=C(Cc1nc(-c2ccc(O[C@H](C)CC)cc2)no1)C(=O)O` [Example 144, (R)-2-((3-(4-(sec-butoxy)phenyl)-1,2,4-oxadiazol-5-yl)methyl)acrylic acid], the values for the EC50 in assay [1] (setting [3]) and in assay [1] (setting [4]) were 31.1 µM and 28.4 µM, respectively. The “NRF2 activation +GSH Emax” value in assay [1] (+GSH) came to 139%. Moreover, in assay [1] (−GSH), the “NRF2 activation −GSH Emax” value is listed as 167%. In assay [2] (differentiated THP-1 cells), the IC50 was greater than 100 µM.

As to `C=C(Cc1nc(C2(c3ccc([S+]([O-])C(F)(F)F)cc3)CC2)no1)C(=O)O` (centres unmarked) [Example 157, 2-((3-(1-(4-((trifluoromethyl)sulfinyl)phenyl)cyclopropyl)-1,2,4-oxadiazol-5-yl)methyl)acrylic acid], the EC50 in assay [1] (setting [3]) and in assay [1] (setting [4]) was greater than 100 µM in each case. Moreover, the “NRF2 activation +GSH Emax” value in assay [1] (+GSH) is recorded as −5%. Also, in assay [1] (−GSH), the “NRF2 activation −GSH Emax” value is listed as 41%. Also, in assay [2] (setting [5]), the IC50 was greater than 100 µM.

As to `C=C(Cc1nc(C2(c3ccc(OC4CC4)cc3)CC2)no1)C(=O)O` [Example 114], the IC50 in assay [2] (setting [5]) is 55.2 µM.

Take `C=C(Cc1nc(C(F)c2ccc(Cl)cc2)no1)C(=O)O` (centres unmarked) [Example 152, 2-((3-((4-chlorophenyl)fluoromethyl)-1,2,4-oxadiazol-5-yl)methyl)acrylic acid]: the IC50 in assay [2] (setting [5]) worked out at 36.4 µM.

The compound `C=C(Cc1nc(C2CCc3c(Cl)cc(Cl)cc32)no1)C(=O)O` (centres unmarked) [Example 148, 2-((3-(4,6-dichloro-2,3-dihydro-1H-inden-1-yl)-1,2,4-oxadiazol-5-yl)methyl)acrylic acid] gave an IC50 in assay [2] (setting [5]) of 42.6 µM. This IC50 and that of the compound before are within 1.5-fold of each other.

As for `COC(=O)/C=C/C(=O)OC` [dimethyl fumarate, reference compound], the EC50 in assay [1] (setting [3]) was greater than 100 µM; in assay [1] (setting [4]), 6.1 µM. In addition, the “NRF2 activation +GSH Emax” value in assay [1] (+GSH) was 20%. The “NRF2 activation −GSH Emax” value in assay [1] (−GSH) was 100%.

Turning to `C=C(Cc1nc(Cc2ccc(C(F)(F)F)c(Cl)c2)no1)C(=O)O` [Example 137, 2-((3-(3-chloro-4-(trifluoromethyl)benzyl)-1,2,4-oxadiazol-5-yl)methyl)acrylic acid], inhibition in assay [2] (setting [5]) was half-maximal at 60.5 µM (IC50).

On to `C=C(Cc1noc(C2(c3ccc(OC(F)(F)F)cc3)CC2)n1)C(=O)O` [Example 99, 2-((5-(1-(4-(trifluoromethoxy)phenyl)cyclopropyl)-1,2,4-oxadiazol-3-yl)methyl)acrylic acid], for which 52.3 µM corresponded to half-maximal inhibition in assay [2] (setting [5]) (IC50).

As for `C=C(Cc1nc(Cc2ccc(Br)c(Cl)c2)no1)C(=O)O` [Example 139, 2-((3-(4-bromo-3-chlorobenzyl)-1,2,4-oxadiazol-5-yl)methyl)acrylic acid], inhibition in assay [2] (setting [5]) was half-maximal at 41.1 µM (IC50).

In assay [2] (setting [5]), `C=C(Cc1nc(-c2ccc(N3CCCC3)cc2)no1)C(=O)O` [Example 132, 2-((3-(4-(pyrrolidin-1-yl)phenyl)-1,2,4-oxadiazol-5-yl)methyl)acrylic acid] came in with an IC50 of 29.9 µM. This IC50 and that of the compound before are within 1.5-fold of each other.

`C=C(Cc1nc(C2(c3ccc(S(=O)(=O)C(F)(F)F)cc3)CC2)no1)C(=O)O` [Example 122, 2-((3-(1-(4-((trifluoromethyl)sulfonyl)phenyl)cyclopropyl)-1,2,4-oxadiazol-5-yl)methyl)acrylic acid] had a half-inhibitory concentration (IC50) in assay [2] (setting [5]) of 75.5 µM. This IC50 lies about 2.5-fold higher than the previous one.

As for `C=C(Cc1nc(-c2ccc(S(F)(F)(F)(F)F)cc2)no1)C(=O)O` [Example 121, 2-((3-(4-(pentafluoro-λ^6-sulfaneyl)phenyl)-1,2,4-oxadiazol-5-yl)methyl)acrylic acid], in assay [2] (setting [5]), the IC50 was 61.8 µM.

`C=C(Cc1nc(-c2ccc(OCCC)cc2)no1)C(=O)O` [Example 149, 2-((3-(4-propoxyphenyl)-1,2,4-oxadiazol-5-yl)methyl)acrylic acid] showed an IC50 in assay [2] (setting [5]) of 50 µM.

The values above are taken from patent US12617762B2, “Carboxy derivatives with antiinflamatory properties” (Sitryx Therapeutics Limited, priority 2019, dated 2026).
